Measurements: ChEMBL document CHEMBL5532748, “Design, synthesis and antibacterial activity evaluation of ebselen derivatives in NDM-1 producing bacteria” (RSC Med Chem, 2024)
Calls of active or inactive are those of the source. The calls are words filed in the database; no cut-off is given here.

Assays:
Escherichia coli [1] = test: Antibacterial activity against Escherichia coli BJE-4 expressing NDM-1 gene in presence of meropenem; assay type: functional
Escherichia coli [2] = test: Antibacterial activity against Escherichia coli BJE-4 expressing NDM-1 gene; assay type: functional
Escherichia coli [3] = test: Synergistic antibacterial activity against Escherichia coli BJE-4 expressing NDM-1 gene assessed as fractional inhibitory concentration index in presence of meropenem; assay type: functional
Escherichia coli [4] = test: Synergistic antibacterial activity against Escherichia coli TG-1 transfected with Klebsiella pneumoniae full-length NDM-1 beta lactamase gene assessed as fractional inhibitory concentration index in presence of meropenem; assay type: functional
Escherichia coli [5] = test: Antibacterial activity against Escherichia coli TG-1 transfected with Klebsiella pneumoniae full-length NDM-1 beta-lactamase gene; assay type: functional
Escherichia coli [6] = test: Antibacterial activity against Escherichia coli TG-1 transfected with Klebsiella pneumoniae full-length NDM-1 beta lactamase gene incubated in presence of meropenem; assay type: functional
Klebsiella pneumoniae [7] = test: Antibacterial activity against Klebsiella pneumoniae producing NDM-1, KPC-2 and SHV-12 beta-lactamases in presence of meropenem; assay type: functional
Klebsiella pneumoniae [8] = test: Synergistic antibacterial activity against Klebsiella pneumoniae producing NDM-1, KPC-2 and SHV-12 beta-lactamases assessed as fractional inhibitory concentration index in presence of meropenem; assay type: functional
Enterobacter cloacae [9] = test: Synergistic antibacterial activity against Enterobacter cloacae producing NDM-1, TEM-1 and SHV-12 beta-lactamases assessed as fractional inhibitory concentration index in presence of meropenem; assay type: functional
HEK-293T = test: Cytotoxicity against HEK293T cells assessed as reduction in cell viability at 8 to 64 ug/ml incubated for 48 hrs by MTT assay; assay type: toxicity, cell-based; conditions: human, dose 8-64 µg/ml
Enterobacter cloacae [10] = test: Antibacterial activity against Enterobacter cloacae producing NDM-1, IMP-4 and TEM-1 beta-lactamases in presence of meropenem; assay type: functional
Citrobacter freundii [11] = test: Synergistic antibacterial activity against Citrobacter freundii producing NDM-1, CTX-M-3 and KPC-2 beta-lactamases assessed as fractional inhibitory concentration index in presence of meropenem; assay type: functional
Escherichia coli [12] = test: Antibacterial activity against Escherichia coli producing NDM-1, CTX-M-15 and SHV-12 beta-lactamases in presence of meropenem; assay type: functional
Citrobacter freundii [13] = test: Antibacterial activity against Citrobacter freundii producing NDM-1 and SHV-12 beta-lactamases; assay type: functional
Citrobacter freundii [14] = test: Antibacterial activity against Citrobacter freundii producing NDM-1, CTX-M-3 and KPC-2 beta-lactamases in presence of meropenem; assay type: functional
Citrobacter freundii [15] = test: Synergistic antibacterial activity against Citrobacter freundii producing NDM-1 and SHV-12 beta-lactamases assessed as fractional inhibitory concentration index in presence of meropenem; assay type: functional
Caco-2 [16] = test: Antibacterial activity against Salmonella lomita SL131 infected in human Caco-2 cells assessed as reduction in bacterial survival rate at 32 to 64 ug/ml incubated for 6 hrs in presence of meropenem by agar dilution method; assay type: functional, cell-based; conditions: Salmonella enterica subsp. enterica serovar Lomita, dose 32-64 µg/ml
Escherichia coli [17] = test: Antibacterial activity against Escherichia coli producing NDM-1 and CTX-M-15 beta-lactamases in presence of meropenem; assay type: functional
Enterobacter cloacae [18] = test: Synergistic antibacterial activity against Enterobacter cloacae producing NDM-1, CTX-M-14 and TEM-1 beta-lactamases assessed as fractional inhibitory concentration index in presence of meropenem; assay type: functional
Enterobacter cloacae [19] = test: Synergistic antibacterial activity against Enterobacter cloacae producing NDM-1, IMP-4 and TEM-1 beta-lactamases assessed as fractional inhibitory concentration index in presence of meropenem; assay type: functional
Escherichia coli [20] = test: Antibacterial activity against Escherichia coli producing NDM-1, CTX-M-15 and SHV-12 beta lactamases; assay type: functional
[21] = target: Metallo-beta-lactamase type 2 (Bacteria) (UniProt C7C422); test: Binding affinity to wild type NDM-1 (unknown origin) assessed as change in NDM-1 enzyme complex at 100 uM by ESI-MS analysis
Sequence of Metallo-beta-lactamase type 2 (Bacteria) (C7C422 whole entry): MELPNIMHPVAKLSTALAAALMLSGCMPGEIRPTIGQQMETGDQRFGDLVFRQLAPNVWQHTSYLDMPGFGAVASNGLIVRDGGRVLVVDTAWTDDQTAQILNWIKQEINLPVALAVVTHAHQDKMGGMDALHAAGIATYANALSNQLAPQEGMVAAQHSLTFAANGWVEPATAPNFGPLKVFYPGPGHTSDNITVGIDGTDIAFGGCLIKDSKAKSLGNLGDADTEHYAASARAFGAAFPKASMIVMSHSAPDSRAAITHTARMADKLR

Enterobacter cloacae [22] = test: Antibacterial activity against Enterobacter cloacae producing NDM-1, CTX-M-14 and TEM-1 beta-lactamases; assay type: functional
Enterobacter cloacae [23] = test: Antibacterial activity against Enterobacter cloacae producing NDM-1, IMP-4 and TEM-1 beta-lactamases; assay type: functional
[24] = target: Metallo-beta-lactamase type 2 (Bacteria, UniProt C7C422); test: Inhibition of NDM-1 (unknown origin) using nitrocefin as substrate incubated for 15 to 60 mins by absorption based analysis
Sequence of Metallo-beta-lactamase type 2 (C7C422 whole entry): as above

Escherichia coli [25] = test: Synergistic antibacterial activity against Escherichia coli producing NDM-1, CTX-M-15 and SHV-12 beta-lactamases assessed as fractional inhibitory concentration index in presence of meropenem; assay type: functional
Enterobacter cloacae [26] = test: Antibacterial activity against Enterobacter cloacae producing NDM-1, TEM-1 and SHV-12 beta-lactamases; assay type: functional
Enterobacter cloacae [27] = test: Antibacterial activity against Enterobacter cloacae producing NDM-1, TEM-1 and SHV-12 beta-lactamase in presence of meropenem; assay type: functional
Escherichia coli [28] = test: Synergistic antibacterial activity against Escherichia coli producing NDM-1 and CTX-M-15 beta-lactamases assessed as fractional inhibitory concentration index in presence of meropenem; assay type: functional
Caco-2 [29] = test: Antibacterial activity against Salmonella lomita SL131 infected in human Caco-2 cells assessed as reduction in bacterial survival rate at 64 ug/ml incubated for 6 hrs by agar dilution method; assay type: functional, cell-based; conditions: Salmonella enterica subsp. enterica serovar Lomita, dose 64.0 µg/ml
Enterobacter cloacae [30] = test: Antibacterial activity against Enterobacter cloacae producing NDM-1, CTX-M-14 and TEM-1 beta-lactamases in presence of meropenem; assay type: functional
Citrobacter freundii [31] = test: Antibacterial activity against Citrobacter freundii producing NDM-1, CTX-M-3 and KPC-2 beta-lactamases; assay type: functional
Citrobacter freundii [32] = test: Antibacterial activity against Citrobacter freundii producing NDM-1 and SHV-12 in presence of meropenem; assay type: functional
Klebsiella pneumoniae [33] = test: Antibacterial activity against Klebsiella pneumoniae producing NDM-1, KPC-2 and SHV-12 beta-lactamases; assay type: functional
Escherichia coli [34] = test: Antibacterial activity against Escherichia coli producing NDM-1 and CTX-M-15 beta lactamases; assay type: functional

COc1ccc(S(=O)(=O)NCCn2[se]c3ccccc3c2=O)cc1
MIC (Escherichia coli [1]): 8 mg/L | MIC (Escherichia coli [2]): > 16 mg/L | fractional inhibitory concentration index (FICI) (Escherichia coli [3]): 0.625 | fractional inhibitory concentration index (FICI) (Escherichia coli [4]): 0.25 | MIC (Escherichia coli [5]): > 64 mg/L | MIC (Escherichia coli [6]): ≤ 8 mg/L

CC(C)(C)OC(=O)NCCCCn1[se]c2ccccc2c1=O
MIC (Escherichia coli [1]): 8 mg/L | MIC (Escherichia coli [2]): > 16 mg/L | fractional inhibitory concentration index (FICI) (Escherichia coli [3]): 0.625 | fractional inhibitory concentration index (FICI) (Escherichia coli [4]): 1 | MIC (Escherichia coli [5]): > 64 mg/L | MIC (Escherichia coli [6]): 32 mg/L

CC(C)(C)OC(=O)NCCCCCn1[se]c2ccccc2c1=O
MIC (Escherichia coli [1]): 8 mg/L | MIC (Escherichia coli [2]): > 16 mg/L | fractional inhibitory concentration index (FICI) (Escherichia coli [3]): 0.625 | fractional inhibitory concentration index (FICI) (Escherichia coli [4]): 0.5 | MIC (Escherichia coli [5]): > 64 mg/L | MIC (Escherichia coli [6]): 16 mg/L

CC(C)(C)OC(=O)NCCCCCCn1[se]c2ccccc2c1=O
MIC (Klebsiella pneumoniae [7]): 16 mg/L | fractional inhibitory concentration index (FICI) (Klebsiella pneumoniae [8]): 0.5 | fractional inhibitory concentration index (FICI) (Enterobacter cloacae [9]): 0.125 | Activity (HEK-293T): Non-Toxic | MIC (Enterobacter cloacae [10]): 16 mg/L | fractional inhibitory concentration index (FICI) (Citrobacter freundii [11]): 0.375 | MIC (Escherichia coli [1]): 4 mg/L | MIC (Escherichia coli [12]): 8 mg/L | MIC (Citrobacter freundii [13]): > 64 mg/L | MIC (Citrobacter freundii [14]): 16 mg/L | fractional inhibitory concentration index (FICI) (Citrobacter freundii [15]): 0.25 | Activity (Caco-2 [16]): Active | MIC (Escherichia coli [2]): > 16 mg/L | MIC (Escherichia coli [17]): 8 mg/L | fractional inhibitory concentration index (FICI) (Enterobacter cloacae [18]): 0.188 | fractional inhibitory concentration index (FICI) (Enterobacter cloacae [19]): 0.5 | MIC (Escherichia coli [20]): > 64 mg/L | Activity [21]: Active | fractional inhibitory concentration index (FICI) (Escherichia coli [3]): 0.313 | fractional inhibitory concentration index (FICI) (Escherichia coli [4]): 0.125 | MIC (Enterobacter cloacae [22]): > 128 mg/L | MIC (Escherichia coli [5]): > 64 mg/L | MIC (Enterobacter cloacae [23]): > 64 mg/L | IC50 [24]: 26.8 µM | fractional inhibitory concentration index (FICI) (Escherichia coli [25]): 0.25 | MIC (Enterobacter cloacae [26]): > 64 mg/L | MIC (Enterobacter cloacae [27]): 4 mg/L | fractional inhibitory concentration index (FICI) (Escherichia coli [28]): 0.25 | MIC (Escherichia coli [6]): 4 mg/L | Activity (Caco-2 [29]): inactive | MIC (Enterobacter cloacae [30]): 8 mg/L | MIC (Citrobacter freundii [31]): > 128 mg/L | MIC (Citrobacter freundii [32]): 8 mg/L | MIC (Klebsiella pneumoniae [33]): > 64 mg/L | MIC (Escherichia coli [34]): > 64 mg/L

COC(=O)c1cccc(-n2[se]c3ccccc3c2=O)c1
MIC (Escherichia coli [1]): 8 mg/L | MIC (Escherichia coli [2]): > 16 mg/L | fractional inhibitory concentration index (FICI) (Escherichia coli [3]): 0.625 | fractional inhibitory concentration index (FICI) (Escherichia coli [4]): 0.25 | MIC (Escherichia coli [5]): > 64 mg/L | IC50 [24]: 3.63 µM | MIC (Escherichia coli [6]): ≤ 8 mg/L

CCS(=O)(=O)NCCn1[se]c2ccccc2c1=O
MIC (Escherichia coli [1]): 8 mg/L | MIC (Escherichia coli [2]): > 16 mg/L | fractional inhibitory concentration index (FICI) (Escherichia coli [3]): 0.625 | fractional inhibitory concentration index (FICI) (Escherichia coli [4]): 0.5 | MIC (Escherichia coli [5]): > 64 mg/L | MIC (Escherichia coli [6]): 16 mg/L

Cc1ccc(S(=O)(=O)NCCn2[se]c3ccccc3c2=O)cc1
MIC (Escherichia coli [1]): 8 mg/L | MIC (Escherichia coli [2]): > 16 mg/L | fractional inhibitory concentration index (FICI) (Escherichia coli [3]): 0.625 | fractional inhibitory concentration index (FICI) (Escherichia coli [4]): 0.25 | MIC (Escherichia coli [5]): > 64 mg/L | MIC (Escherichia coli [6]): ≤ 8 mg/L

CC(C)(C)OC(=O)N1CC[C@@H](n2[se]c3ccccc3c2=O)C1
MIC (Escherichia coli [1]): 8 mg/L | MIC (Escherichia coli [2]): > 16 mg/L | fractional inhibitory concentration index (FICI) (Escherichia coli [3]): 0.625 | fractional inhibitory concentration index (FICI) (Escherichia coli [4]): 0.25 | MIC (Escherichia coli [5]): > 64 mg/L | MIC (Escherichia coli [6]): ≤ 8 mg/L

CC(C)(C)c1ccc(S(=O)(=O)NCCn2[se]c3ccccc3c2=O)cc1
MIC (Escherichia coli [1]): 8 mg/L | MIC (Escherichia coli [2]): > 16 mg/L | fractional inhibitory concentration index (FICI) (Escherichia coli [3]): 0.625 | fractional inhibitory concentration index (FICI) (Escherichia coli [4]): 0.25 | MIC (Escherichia coli [5]): > 64 mg/L | MIC (Escherichia coli [6]): ≤ 8 mg/L

COC(=O)c1ccc(-n2[se]c3ccccc3c2=O)cc1OC
Activity (HEK-293T): Non-Toxic | MIC (Escherichia coli [1]): 4 mg/L | MIC (Escherichia coli [2]): > 16 mg/L | fractional inhibitory concentration index (FICI) (Escherichia coli [3]): 0.313 | fractional inhibitory concentration index (FICI) (Escherichia coli [4]): 0.25 | MIC (Escherichia coli [5]): > 64 mg/L | IC50 [24]: 7.81 µM | MIC (Escherichia coli [6]): ≤ 8 mg/L

CCc1ccc(-n2[se]c3ccccc3c2=O)cc1
MIC (Escherichia coli [1]): 8 mg/L | MIC (Escherichia coli [2]): > 16 mg/L | fractional inhibitory concentration index (FICI) (Escherichia coli [3]): 0.625 | fractional inhibitory concentration index (FICI) (Escherichia coli [4]): 2 | MIC (Escherichia coli [5]): > 64 mg/L | MIC (Escherichia coli [6]): 64 mg/L

CC(C)(C)OC(=O)NCCn1[se]c2ccccc2c1=O
MIC (Escherichia coli [1]): 8 mg/L | MIC (Escherichia coli [2]): > 16 mg/L | fractional inhibitory concentration index (FICI) (Escherichia coli [3]): 0.625 | fractional inhibitory concentration index (FICI) (Escherichia coli [4]): 0.5 | MIC (Escherichia coli [5]): > 64 mg/L | IC50 [24]: 1.26 µM | MIC (Escherichia coli [6]): 16 mg/L
